The data set relates to HEP-G2 cells. Description: cells. Conditions: for EC50 / Emax / EC (Emax): Homo sapiens; for EC50: HepG2, 3 h. On the procedure: Assay (I): Glucose utilisation in a human hepatocytes cell line (HEP-G2 cells)
The assay measures indirectly the activity of the respiratory chain in HEP-G2 cells by using D-(3-^3H(N))-glucose. The ^3H-proton will first be released during the metabolism of glucose where it will be incorporated into water. The water is thereafter separated from the D-(3-^3H(N))-glucose by evaporation. Finally, the radioactivity in the water is determined using a Topcounter.
HEP-G2 cells obtained from ATCC (Maryland, USA), are cultured in assay medium (MEM medium) with the following addition 1× non-essential amino acids (M7145, 2 mM glutamine, 100 units/ml penicillin and streptomycin, 0.0075% sodium bicarbonate, 1 mM sodium pyrovate and 0.5% BSA (Bovin Serum Albumin, Sigma Missouri, USA)) at 37° C. and 5% CO2. All media are obtained by Gibco (Life Technologies, Maryland, USA) where not otherwise mentioned.
At day zero the cells are harvested using trypsin-EDTA and washed in assay medium using centrifugation. […] The cells are then incubated at 37° C. and 5% CO2 overnight.
The next day the compounds to be tested are diluted in DMSO (Sigma, Missouri, USA) to 100 times final concentration. They are then diluted to a final concentration in assay medium containing 10 μCi/ml D-(3-^3H(N))-glucose (PerkinElmer Life Sciences Inc., Boston, USA). The medium is removed from the cells and 200 μl of the compound dilutions are added in duplicates. The cells are then incubated for another 3 hours at 37° C. and 5% CO2. Finally the cells are lysed by adding 50 μl 10% TCA (trichloroacetic acid). 300 μl of sterile water is then added to the 24-wells that surrounds the StripPlate wells. The plate is sealed with Top-seal-tape (Packard, PerkinElmer Life Sciences Inc., Boston, USA) and the plate is incubated in a heating cupboard at 50° C. to equilibrium the radioactive water formed in the respiratory chain into the water in the 24-well plate by evaporate. The plates incubate for 8 hours where the heating cupboard is turned off. The top seal is removed when the samples have reached room temperature. One ml scintillation liquid (Packard Microscient, PerkinElmer Life Sciences Inc., Boston, USA) is added to all the samples and the radioactivity is determined using a Topcounter (Packard, PerkinElmer Life Sciences Inc., Boston, USA). Non-specific activity is determined by evaporating 200 μl of the dilution medium containing the D-(3-^3H(N))-glucose into 300 μl sterile water, and total radioactivity is determined by counting 5 μl assay medium with 10 μCi/ml D-(3-^3H(N))-glucose.
The cpm (counts per minute) representing the non-specific radioactivity in the D-(3-^3H(N))-glucose is subtracted from all incubated values. Then mean basal value (samples without any compound added) is subtracted from the values of all stimulated samples (samples added different concentrations of the different test compounds). All these calculations are done using GraphPad Prism 3.0 (GraphPad software, Inc.). The maximal stimulation caused by the test compounds is calculated in percentage of maximal stimulation caused by either DNP or FCCP.
When calculating the concentration-response curve the maximal glucose utilisation stimulated by FCCP or DNP (subtracted non-specific and basal values) is converted to 100% and all the other values are expressed in percentage of this value. Using these percentage values and the compound concentration a concentration-response curve is calculated using sigmoidal dose-response (variable slope) equation (all the calculations are done by GraphPad Prism 3.0 (GraphPad software, Inc.));
Y=Bottom+(Top−Bottom)/(1+10^((LogEC50-X)*slope))
X is the logarithm of the molar concentration of the test compound.
Y is the degree of stimulation caused by the compound measured as a percentage of the maximal stimulation achieved by use of FCCP or DNP.
The results achieved with these concentrations are used to determine the slope in this area using the following equation: […]

The mark [1] stands for this setting: read-out: HEP-G2 EC50, HEP-G2 cells, glucose utilisation, 3 hours incubation.
Where [2] appears, read: HepG2, read-out: HEP-G2 Emax (% of FCCP), HEP-G2 cells, maximal stimulation relative to FCCP.
The mark [3] stands for this setting: HepG2, read-out: HEP-G2 Emax (μM), HEP-G2 cells, concentration at which Emax is achieved (CEmax).
The mark [4] stands for this setting: HepG2, read-out: HEP-G2 Emax (% of FCCP).
[5] abbreviates: HepG2, read-out: HEP-G2 Emax (μM).

Results on 24 compounds are retold here after patent US20040138301A1, “Chemical uncouplers for the treatment of obesity” (priority 2002, published 2004).

SMILES strings stand for the structures. Read-outs that look alike come from different tables or passages of the source.

For the compound `COc1ccc(O)c([N+](=O)[O-])c1` [Example 2, 4-Methoxy-2-Nitrophenol], the EC50 (commonly the concentration giving half of the maximal effect) under setting [1] stood at 290 µM. Further, the Emax (commonly the greatest response seen or fitted, relative to the assay's reference) under setting [2] was 35%. Moreover, under setting [3], the EC (Emax) was 1000 µM.

For the compound `CC(=O)c1ccc(O)c([N+](=O)[O-])c1` [Example 3, 4-Hydroxy-3-Nitroacetophenone], the EC50 under setting [1] was 270 µM. In addition, the Emax under setting [2] worked out at 75%. Also, under setting [3], the EC (Emax) came to 1000 µM.

With `N#Cc1ccc(NC(=O)c2cc(C(F)(F)F)cc(C(F)(F)F)c2)cc1C(F)(F)F` [Example 6, N-1-[4-Cyano-3-(Trifluoromethyl)Phenyl]-3,5-Di(Trifluoromethyl)Benzamide], the EC50 (read-out: HEP-G2 EC50) was found to be 1.6 µM. Moreover, the Emax under setting [4] was 95%. The EC (Emax) under setting [5] worked out at 10 µM. Further, the “HEP-G2 Tox” value (concentration with sign of toxicity (significant drop in glucose utilisation)) is listed as “Tox 0.1 mM”.

`O=C(Nc1ccc([N+](=O)[O-])cc1Cl)c1ccc2ccccc2c1O` [Example 8, 2′-Chloro-1-Hydroxy-4′-Nitro-2-Naphthanilide]: the EC50 (read-out: HEP-G2 EC50) was 12 µM. Under setting [4], the Emax stood at 80%. In addition, under setting [5], the EC (Emax) came out at 100 µM.

For the compound `O=C(Nc1ccc(Br)cc1Cl)c1cc(Br)ccc1O` [Example 9, N-(2-Chloro-4-Bromophenyl)-5-Bromosalicylanilide], under setting [1], the EC50 came to 2.3 µM. Under setting [2], the Emax was found to be 100%. In addition, under setting [3], the EC (Emax) was determined as 10 µM.

For `CC(C)(C)c1cc(/C=N/C(C#N)=C(\N)C#N)cc(C(C)(C)C)c1O` [Example 17, 2-Amino-S-[(3,5-Di-Tert-Butyl-4-Hydroxybenzylidone)-Amino]-But-2-Enedinitrile], the EC50 under setting [1] turned out to be 6 µM. Besides, the Emax under setting [2] is 45%. Moreover, the EC (Emax) under setting [3] amounted to 30 µM. The “HEP-G2 Tox” value (human, 3 h) is given as “Tox 0.1 mM”.

Turning to `CCc1cc(C#N)cc2c(C)c(C)[nH]c12` [Example 22, 2,3-Dimethyl-5-Cyano-7-Ethylindole], the EC50 under setting [1] turned out to be 91 µM. Further, the Emax under setting [2] worked out at 100%. Moreover, under setting [3], the EC (Emax) turned out to be 1000 µM.

In the case of `N#Cc1c(-c2ccc(Cl)cc2)[nH]c(C(F)(F)F)c1Br` [Example 23, 4-Bromo-2-(4-Chlorophenyl)-5-Trifluoromethyl-1H-Pyrrole-3-Carbonitrile], the EC50 (read-out: HEP-G2 EC50) worked out at 1.75 µM. Under setting [4], the Emax was 117%. Moreover, the EC (Emax) under setting [5] turned out to be 30 µM.

Consider `N#Cc1cc(NC(=O)c2cccc(C(F)(F)F)c2)ccc1Sc1ccccc1` [Example 24, N-(3-Cyano-4-Phenylsulfanyl-Phenyl)-3-Trifluoromethyl-Benzamide], for which the EC50 under setting [1] came to 42 µM. For the same compound, the Emax under setting [2] is 65%. In addition, the EC (Emax) under setting [3] came out at 100 µM.

As to `Cc1cc(C)c2[nH]cc(C=C(C#N)C#N)c2c1` [Example 28, 2-(5,7-Dimethyl-1H-Indol-3-Ylmethylene)-Malononitrile], the EC50 under setting [1] turned out to be 35.5 µM. The maximal response (Emax) under setting [2] is 35%. For the same compound, the EC (Emax) under setting [3] is 300 µM.

Turning to `N#CC(C#N)=Cc1c[nH]c2ccc(Br)cc12` [Example 29, 2-(5-Bromo-1H-Indol-3-Ylmethylene)-Malononitrile], under setting [1], the EC50 worked out at 13 µM. Moreover, under setting [2], the Emax is 65%. In addition, the EC (Emax) under setting [3] came out at 30 µM.

Turning to `Cc1ccc2[nH]cc(C=C(C#N)C#N)c2c1` [Example 31, 2-((5-Methyl-1H-Indol-3-Yl)Methylene)Malononitrile], the EC50 under setting [1] is at least 300 µM. Moreover, the Emax under setting [2] is 0%.

In the case of `CC(C)c1cccc(C(=O)Nc2ccc([N+](=O)[O-])cc2Cl)c1O` [Example 38, N-(2-Chloro-4-Nitro-Phenyl)-2-Hydroxy-3-Isopropyl-Benzamide], under setting [1], the EC50 came to 3.35 µM. Moreover, the Emax under setting [2] worked out at 105%. Also, under setting [3], the EC (Emax) is 30 µM.

Regarding `Cc1ccc(C(C)C)c(O)c1C(=O)Nc1ccc([N+](=O)[O-])cc1Cl` [Example 39, N-(2-Chloro-4-Nitro-Phenyl)-2-Hydroxy-3-Isopropyl-6-Methyl-Benzamide], the EC50 under setting [1] is 6 µM. Moreover, under setting [2], the Emax worked out at 55%. Besides, the EC (Emax) under setting [3] is 10 µM.

For `Cc1c(Br)cc(C(C)C)c(O)c1C(=O)Nc1ccc([N+](=O)[O-])cc1Cl` [Example 41, 3-Bromo-N-(2-Chloro-4-Nitro-Phenyl)-6-Hydroxy-5-Isopropyl-2-Methyl-Benzamide], under setting [1], the EC50 amounted to 4 µM. The Emax under setting [2] stood at 103%. The EC (Emax) under setting [3] amounted to 30 µM.

Take `Cc1cc(C(=O)Nc2ccc([N+](=O)[O-])cc2Cl)c(O)c(C(C)(C)C)c1` [Example 45, 3-Tert-Butyl-N-(2-Chloro-4-Nitro-Phenyl)-2-Hydroxy-5-Methyl-Benzamide]: the EC50 under setting [1] worked out at 0.6 µM. In addition, the Emax under setting [2] turned out to be 96%. Further, the EC (Emax) under setting [3] amounted to 3 µM.

For `Cc1ccc(C(C)C)c(C(=O)Nc2ccc([N+](=O)[O-])cc2Cl)c1O` [Example 46, N-(2-Chloro-4-Nitro-Phenyl)-2-Hydroxy-6-Isopropyl-3-Methyl-Benzamide], the EC50 under setting [1] stood at 3 µM. Moreover, under setting [2], the Emax was determined as 103%. Moreover, under setting [3], the EC (Emax) was determined as 10 µM.

Take `Cc1c(Br)cc(C(C)C)c(O)c1C(=O)Nc1ccc([N+](=O)[O-])cc1C(F)(F)F` [Example 57, 3-Bromo-6-Hydroxy-5-Isopropyl-2-Methyl-N-(4-Nitro-2-Trifluoromethyl-Phenyl)-Benzamide]: the EC50 under setting [1] came to 0.31 µM. The Emax under setting [2] was 90%. In addition, the EC (Emax) under setting [3] was 10 µM.

As to `O=C(Nc1cc(C(F)(F)F)cc(C(F)(F)F)c1)c1cc(F)cc(C(F)(F)F)c1` [Example 64, N-(3,5-Bis-Trifluoromethyl-Phenyl)-3-Fluoro-5-Trifluoromethyl-Benzamide], the EC50 under setting [1] was 2.6 µM. Besides, the Emax under setting [2] was found to be 105%. In addition, the EC (Emax) under setting [3] was 10 µM.

Turning to `O=C(Nc1ccc([N+](=O)[O-])c(C(F)(F)F)c1)c1cc(F)cc(C(F)(F)F)c1` [Example 65, 3-Fluoro-N-(4-Nitro-3-Trifluoromethyl-Phenyl)-5-Trifluoromethyl-Benzamide], under setting [1], the EC50 is 5.3 µM. In addition, the Emax under setting [2] came out at 100%. Further, the EC (Emax) under setting [3] came to 10 µM.

Take `O=C(Nc1cc(C(F)(F)F)cc(C(F)(F)F)c1)c1ccc(C(F)(F)F)c(F)c1` [Example 66, N-(3,5-Bis-Trifluoromethyl-Phenyl)-3-Fluoro-4-Trifluoromethyl-Benzamide]: the EC50 under setting [1] worked out at 4.3 µM. The Emax under setting [2] worked out at 95%. Also, the EC (Emax) under setting [3] amounted to 10 µM.

As to `O=C(Nc1ccc([N+](=O)[O-])c(C(F)(F)F)c1)c1ccc(F)c(C(F)(F)F)c1` [Example 67, 4-Fluoro-N-(4-Nitro-3-Trifluoromethyl-Phenyl)-3-Trifluoromethyl-Benzamide], under setting [1], the EC50 stood at 5.9 µM. Further, the Emax under setting [2] was 85%. Also, under setting [3], the EC (Emax) came out at 30 µM.

As to `CC(C)(C)c1cc(/C=C(\C#N)c2ccncc2)cc(C(C)(C)C)c1O` [Example 78, 3-(3,5-Di-Tert-Butyl-4-Hydroxy-Phenyl)-2-Pyridin-4-Yl-Acrylonitrile], under setting [1], the EC50 came to 2.9 µM. For the same compound, under setting [2], the Emax worked out at 80%. In addition, the EC (Emax) under setting [3] stood at 10 µM.

Turning to `CC(C)(C)c1cc(/C=C(\C#N)c2cc(C(F)(F)F)cc(C(F)(F)F)c2)cc(C(C)(C)C)c1O` [Example 79, 2-(3,5-Bis-Trifluoromethyl-Phenyl)-3-(3,5-Di-Tert-Butyl-4-Hydroxy-Phenyl)-Acrylonitrile], the EC50 under setting [1] came out at 1 µM. The Emax under setting [2] worked out at 80%. Further, the EC (Emax) under setting [3] was 3 µM. Further, the “HEP-G2 Tox” value (human, 3 h) is recorded as “Tox 0.3 mM”.
